Reference: ChEMBL document CHEMBL1201862, “PubChem BioAssay data set” (2004)
“And” between values parts separate entries of the source, which are not always exact repeats. Equal entries are not always repeated.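 Cultured in 96-well plates, cells were exposed to test compound for 48 hours across five concentrations. GI50 is the concentration that inhibits growth by half.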 The source made the active and inactive calls. Cut-off read from the data, not from the text of the source: active = GI50 up to about 1.1 µM and inactive = higher.

Tests used:
Assay in all cases: NCI-60 cell line screen, 48 h
U-251 = tested on: U-251
SNB-19 = tested on: SNB-19
M14 = tested on: M14
UO-31 = tested on: UO-31
CAKI-1 = tested on: CAKI-1
SK-OV-3 = tested on: SK-OV-3
TK-10 = tested on: TK-10
HOP-92 = tested on: HOP-92
EKVX = tested on: EKVX
NCI/ADR-RES = tested on: NCI/ADR-RES
ACHN = tested on: ACHN
UACC-62 = tested on: UACC-62
HOP-62 = tested on: HOP-62
COLO 205 = tested on: COLO 205
NCI-H23 = tested on: NCI-H23
KM12 = tested on: KM12
HCT-15 = tested on: HCT-15
NCI-H226 = tested on: NCI-H226
OVCAR-8 = tested on: OVCAR-8
IGROV-1 = tested on: IGROV-1

SMILES | GI50 (U-251) | GI50 (SNB-19) | GI50 (M14) | GI50 (UO-31) | GI50 (CAKI-1) | GI50 (SK-OV-3) | GI50 (TK-10) | GI50 (HOP-92) | GI50 (EKVX) | GI50 (NCI/ADR-RES) | GI50 (ACHN) | GI50 (UACC-62) | GI50 (HOP-62) | GI50 (COLO 205) | GI50 (NCI-H23) | GI50 (KM12) | GI50 (HCT-15) | GI50 (NCI-H226) | GI50 (OVCAR-8) | GI50 (IGROV-1)
Nn1c(S)nnc1COc1cccc(OCc2nnc(S)n2N)c1 | > 100 µM (inactive) | > 100 µM (inactive) | > 100 µM (inactive) | > 100 µM (inactive) | > 100 µM (inactive) | > 100 µM (inactive) | > 100 µM (inactive) | > 100 µM (inactive) | > 100 µM (inactive) | > 100 µM (inactive) | > 100 µM (inactive) | 83.2 µM (inactive) | > 100 µM (inactive) | 98.4 µM (inactive) | > 100 µM (inactive) | > 100 µM (inactive) | 58.7 µM | > 100 µM (inactive) | > 100 µM (inactive) | > 100 µM (inactive)
CSC1(C)C(=O)Nc2c(OCc3ccccc3)cc([N+](=O)[O-])cc21 (stereo not drawn) | 19.9 µM (inactive) | > 100 µM (inactive) | 29.8 µM (inactive) | – | 75.3 µM (inactive) | > 100 µM (inactive) | > 100 µM (inactive) | 20 µM (inactive) | 29.4 µM (inactive) | 28.4 µM (inactive) | > 100 µM (inactive) | 19.6 µM (inactive) | > 100 µM (inactive) | > 100 µM (inactive) | 75.9 µM (inactive) | 96.8 µM (inactive) | 50.5 µM | 13.5 µM (inactive) | 21.5 µM (inactive) | 54.8 µM (inactive)
CN(CC(=O)O)c1ncc2c(n1)-c1ccccc1OC2c1ccccc1 (stereo not drawn) | > 100 µM (inactive) | > 100 µM (inactive) | > 100 µM (inactive) | 38 µM (inactive) | > 100 µM (inactive) | > 100 µM (inactive) | > 100 µM (inactive) | > 100 µM (inactive) | > 100 µM (inactive) | > 100 µM (inactive) | > 100 µM (inactive) | 92.5 µM (inactive) | > 100 µM (inactive) | > 100 µM (inactive) | 51.6 µM (inactive) | 79.6 µM (inactive) | > 100 µM | 86.7 µM (inactive) | > 100 µM (inactive) | > 100 µM (inactive)
O=C1OC(c2ccccc2)=N/C1=C\c1ccccc1 | 32.1 µM (inactive) and 35.1 µM (inactive) | 66.7 µM (inactive) and 40.1 µM (inactive) | 26.9 µM (inactive) and 30.4 µM (inactive) | > 100 µM (inactive) | > 100 µM (inactive) | > 100 µM (inactive) | 62.7 µM (inactive) and 78.2 µM (inactive) | > 100 µM (inactive) | > 100 µM (inactive) | 29.2 µM (inactive) and 40.7 µM (inactive) | > 100 µM (inactive) | > 100 µM (inactive) | 29.1 µM (inactive) and 25.8 µM (inactive) | – | > 100 µM (inactive) | 34.8 µM (inactive) and 26.6 µM (inactive) | – | 24 µM (inactive) and 36.6 µM (inactive) | 38.8 µM (inactive) and 32.6 µM (inactive) | 55.5 µM (inactive) and 37.6 µM (inactive)
CC12C3C4C1C1C2C3C41CO (stereo not drawn) | > 100 µM (inactive) | > 100 µM (inactive) | > 100 µM (inactive) | > 100 µM (inactive) | > 100 µM (inactive) | > 100 µM (inactive) | > 100 µM (inactive) | > 100 µM (inactive) | > 100 µM (inactive) | > 100 µM (inactive) | > 100 µM (inactive) | > 100 µM (inactive) | – | > 100 µM (inactive) | – | > 100 µM (inactive) | > 100 µM | > 100 µM (inactive) | > 100 µM (inactive) | > 100 µM (inactive)
N[C@]1(C(=O)O)C[C@@H]2C(Br)=NO[C@@H]2C1 | > 100 µM (inactive) | > 100 µM (inactive) | > 100 µM (inactive) | > 100 µM (inactive) | > 100 µM (inactive) | > 100 µM (inactive) | > 100 µM (inactive) | > 100 µM (inactive) | 70.3 µM (inactive) | > 100 µM (inactive) | > 100 µM (inactive) | > 100 µM (inactive) | > 100 µM (inactive) | > 100 µM (inactive) | > 100 µM (inactive) | > 100 µM (inactive) | 76.9 µM | > 100 µM (inactive) | > 100 µM (inactive) | –
FC(F)(F)c1ccc2c(c1)nc1n2C(c2c(Cl)cccc2Cl)SC1 (stereo not drawn) | 19.3 µM (inactive) | 19.1 µM (inactive) | 16.1 µM (inactive) | 15.4 µM (inactive) | 14.9 µM (inactive) | 25.8 µM (inactive) | 22 µM (inactive) | 13.6 µM (inactive) | 14.2 µM (inactive) | 21.5 µM (inactive) | 15.9 µM (inactive) | 14.4 µM (inactive) | 15.4 µM (inactive) | – | 20.5 µM (inactive) | 12.2 µM (inactive) | 21.6 µM | 21.1 µM (inactive) | 25.4 µM (inactive) | 17.3 µM (inactive)
